Results published in patent US20040229817A1, “Inhibitors of Hepatitis C virus, compositions and treatments using the same” (priority 2003, published 2004).
Read-outs that look alike come from different tables or passages of the source.

Tests used:
[1] = system: HCV reporter replicon; experiment: HCV reporter replicon assay, antiviral activity (dual luciferase); assay type: cell-based; settings: for EC50: Hepatitis C virus
Procedure: (§1) All compounds were tested in an HCV reporter replicon assay. Briefly, a reporter replicon containing Huh-7 hepatoma cells was grown in DMEM (Invitrogen, Carlsbad, Calif.) and seeded in 96-well black wall, clear-bottom plates (Costar®; Coming Incorporated). Cells were allowed to settle at 37° C., 5% CO2 for 30 minutes. The compounds were serially diluted in separate 96 well plates and […] of each concentration was added to the appropriate well in triplicate. The plates are incubated at 37° C., 5% CO2 for three days.
(§2) Following three days of incubation, the media was aspirated from the wells and cells are washed with 100 μl PBS. After removing the PBS, 20 μl of 1× Passive Lysis Buffer (Promega Corp., Madison, Wis.) is added to each well, and the cells are allowed to lyse at room temperature for 15 minutes. Antiviral activity and cytotoxicity is measured following lysis using the dual luciferase kit (Promega Corp., Madison, Wis.). The percent antiviral inhibition and percent cytotoxicity for each concentration is calculated after subtracting the background values of media only wells from wells containing cells, and subtratcting 100 from the percent ratio of the value in the compound well to the cell only control well.

[2] = Solubility (Sol.) reported with the replicon assay
[3] = in vitro; assay type: cell-based; settings: human, three days incubation
Procedure: as §1, §2

[4] = 7-pt Assay, value marked (exp), read-out: EC50 (exp)
[5] = Huh-7, 72 h, Extended 8-pt Assay, replicon-containing Huh-7 cells, three days incubation, read-out: EC50
[6] = Huh-7, 72 h, 7-pt Assay, replicon-containing Huh-7 cells, three days incubation, read-out: EC50

| Compound | CC50/EC50 ([1]; 7-pt Assay) | EC50 [1, 4] [µM] | EC50 [1, 5] [µM] | Sol. ([2]; 7-pt Assay) [µM] | Sol. ([2]; 7-pt Assay, unit not given) | Sol. ([2]; Extended 8-pt Assay) [µM] | CC50 at 3 days ([3]; 7-pt Assay) [µM] | CC50 at 3 days ([3]; Extended 8-pt Assay) [µM] | EC50 [1, 6] [µM] |
| --- | --- | --- | --- | --- | --- | --- | --- | --- | --- |
| O=C(NO)[C@H]1CCCC[C@@H]1SCCc1ccc(-c2ccccc2)cc1 (relative stereo) [Example 6, trans-2-(Biphenyl-4-yl-ethylsulfanyl)cyclohexanecarboxylic Acid Hydroxyamide] | 3265 | 0.034 | 0.05 | >320 | 320 | >320 | 111 | 99 | – |
| O=C(NO)C1=C(SCCc2ccc(-c3ccccc3)cc2)CCCC1 [Example 1, 2-(2-Biphenyl-4-yl-ethylsulfanyl)-cyclohex-1-ene-carboxylic Acid Hydroxyamide] | 15 | – | 1.6 | <320 | 100 | >320 | 32 | 31 | 2.1 |
| O=C(NO)[C@@H]1CCCC[C@@H]1SCCc1ccccc1 [Example 3] | 130 | – | 1.9 | >320 | 320 | >320 | ≥ 320 | 211 | 2.5 |
| O=C(NO)[C@@H]1CCCC[C@H]1S(=O)(=O)CCc1ccccc1 [Example 5, trans-2-Phenylethanesulfonyl-cyclohexanecarboxylic Acid Hydroxyamide] | 1333 | 0.24 | 0.31 | >320 | 320 | >320 | > 320 | > 320 | – |
| COC(=O)c1ccc(NC(=O)[C@H](CC(C)C)NC(=O)[C@@H](CC(=O)NO)c2ccccc2)cc1 [Example 8, methyl 4-({N-[(2S)-4-(hydroxyamino)-4-oxo-2-phenylbutanoyl]-L-leucyl}amino)benzoate] | 218 | – | 1.2 | <100 | 32 | <320 | > 320 | > 320 | 1.5 |
| CC(=O)N1CCN(S(=O)(=O)c2ccc(Oc3ccccc3)cc2)C(C(=O)NO)C1 (stereo not shown) [Example 9, 4-acetyl-N-hydroxy-1-[(4-phenoxyphenyl)sulfonyl]piperazine-2-carboxamide] | 835 | 0.097 | 0.018 | >320 | 320 | >320 | 81 | 79 | – |
| CC(C)(C)OC(=O)N1CCN(S(=O)(=O)c2ccc(Oc3ccccn3)cc2)[C@@H](C(=O)NO)C1 [Example 10, tert-butyl (3R)-3-[(hydroxyamino)carbonyl]-4-{[4-(pyridin-2-yloxy)phenyl]sulfonyl}piperazine-1-carboxylate] | 1937 | 0.15 | 0.19 | >320 | 320 | >320 | 294 | 224 | – |
| CS(=O)(=O)N1CCN(S(=O)(=O)c2ccc(Oc3ccc(F)cc3)cc2)[C@@H](C(=O)NO)C1 [Example 11, (2R)-1-{[4-(4-fluorophenoxy)phenyl]sulfonyl}-N-hydroxy-4-(methylsulfonyl)piperazine-2-carboxamide] | 444 | 0.027 | 0.049 | >320 | 320 | >320 | 12 | 15 | – |
| CC1(C)SCCN(S(=O)(=O)c2ccc(Oc3ccncc3)cc2)[C@H]1C(=O)NO [Example 12, (3S)—N-hydroxy-2,2-dimethyl-4-{[4-(pyridin-4-yloxy)phenyl]sulfonyl}thiomorpholine-3-carboxamide] | 880 | – | 0.26 | >320 | 320 | >320 | 320 | > 320 | 0.36 |
| O=C(NO)C1CCCCN1S(=O)(=O)c1ccc(Sc2ccncc2)cc1 (stereo not shown) [Example 13, N-hydroxy-1{[4-(pyridin-4-ylthio)phenyl]sulfonyl}piperidine-2-carboxamide] | 667 | – | 0.35 | >320 | 320 | >320 | 293 | 211 | 0.44 |
| Cc1cc(CSC(C)(C)[C@@H](NS(=O)(=O)c2ccc(Oc3ccc(Br)cc3)cc2)C(=O)NO)no1 [Example 14, N^2-{[4-(4-bromophenoxy)phenyl]sulfonyl}-N^1-hydroxy-3{[(5-methylisoxazol-3-yl)methyl]thio}-D-valinamide] | 49 | – | 1.9 | >320 | 320 | <320 | 78 | 41 | 1.57 |
